{
  "source": "paper PMC8720282",
  "about": "(ACS chemical biology, 2021)",
  "system": "defibrinated rabbit red blood cells",
  "experiment": "Hemolysis assay",
  "type": "cell-based",
  "details": "defibrinated rabbit RBCs, triplicate on three separate days",
  "data": [
    {"molecule": "CC(C)(C)CC(C)(C)c1ccc(OCCO)cc1", "note": "[Triton X]", "values": [
      {"measurement": "hemolysis in THY media alone", "value": "significant degree of hemolysis"}
    ]}
  ]
}
